Assay results: patent publication US4528188A, “Polysaccharide PS-A obtained from barrenwort deriving from plants belonging to the genus Epimedium, process for preparation thereof and phylactic and immunostimulating agents comprising said polysaccharide PS-A effective component” (priority 1981, dated 1985)

Tests used:
E. coli ML 4707 [1] = test: Combination with antibiotics, normal state (Table 11); type: in vivo, E. coli; male mice of the ICR/JCL strain; details: only ampicillin, 12.5 mg/kg twice
Description: A sample was administered subcutaneously to the back of each of 5-weeks-old male mice of the ICR/JCL strain having a body weight of about 25 g (each group consisting of 10 mice) once a day continuously for five days (5 times in total). PS was given to a control group. On the sixth day, 1.0×10^7 cells of E. coli ML 4707 was challenged thereto by the intraperitoneal injection. 12.5 mg/kg of ampicillin (Ampicillin sodium for injection; produced by Toyama Kagaku Co., Ltd., Japan) was administered to each mouse twice (directly after the intraperitoneal injection and 4 hours thereafter). Seven days after the challenge, viable count was examined.

E. coli ML 4707 [2] = test: Combination with an antibiotic in the immunosuppressive state (Table 12); type: in vivo, E. coli; female mice of the ICR/JCL strain; details: only ampicillin, 6.25 mg/kg s.c.; cyclophosphamide
Description: A sample was administered subcutaneously to the back of each of 5-weeks-old female mice of the ICR/JCL strain having a body weight of about 25 g (each group consisting of 10 mice) once a day continuously for four days (4 times in total). PS was given to a control group. On the first day, 200 mg/kg of cyclophosphamide was injected to them by the intraperitoneal injection. On the next day of the final administration (i.e. on the fifth day), 1.0×10^6 cells of E. coli ML 4707 was challenged thereto by the intraperitoneal injection. One hour thereafter, 6.25 mg/kg of ampicillin (Ampicillin-sodium for injection; produced by Toyama Kagaku Co., Ltd., Japan) was administered to the back of each mouse by the subcutaneous injection. Seven days after the challenge, viable count was examined.

CC1(C)S[C@@H]2[C@H](NC(=O)[C@H](N)c3ccccc3)C(=O)N2[C@H]1C(=O)O [ampicillin]
Viable count (E. coli ML 4707 [1]): 20%
Viable count (E. coli ML 4707 [2]): 10%
